Experimental data as given in patent US6685951B2, “Administration of dihydroergotamine as a sublingual spray or aerosol for the treatment of migraine” (R. T. Alamo Ventures I, Inc., priority 2001, dated 2004).

Assays:
[1] = Plasma DHE after sublingual administration of DHE 45 dosing solution in a monkey; type: in vivo, Cynomogolius monkey
Procedure: In this example the intrinsic permeability of DHE was shown after it was sublingually administered DHE in a Cynomogolius monkey.
The test DHE was obtained from as DHE 45® Injection, USP (manufactured by Novartis). Specific information follows.
(§1) Prior to dose administration, the animal was restrained and anesthetized with an appropriate amount of ketamine. Using a calibrated pipette, 0.5 mL of dosing solution was placed under the animal's tongue immediately after swabbing excess saliva with a gauze pad (the gauze pad will be discarded). The animal's head was restrained for approximately 5 minutes in such a manner to minimize any loss of the dose solution through the animal's mouth or down the animal's throat.
Blood (approximately 1 mL) was collected from each animal prior to dosing (predose) and at 0.1, 0.2, 0.3, 0.4, 0.5, 1, 2, 4, 8, and 12 hours postdose. Blood was collected via a femoral vein into sodium-heparinized tubes.
Blood was maintained on wet ice, in chilled Kryoracks, or at approximately 5° C. prior to centrifugation to obtain plasma. Centrifugation was begin within 30 minutes of collection. The blood samples were centrifuged at approximately 5° C. for approximately 10 minutes at approximately 4,000 rpm. Plasma was harvested and stored on dry ice or at approximately −70° C. prior to shipment.
The plasma was assayed for DHE using standard techniques.

[2] = Mortality/moribundity checks and cageside observation after sublingual DHE; type: in vivo, Cynomogolius monkey; conditions: sublingual 0.5 mL of 1.0 mg/mL; throughout the study
Procedure: as §1
Mortality and moribundity checks were done twice daily (a.m. and p.m.). Cageside observation for general health and appearance was done once daily.

migraine symptoms [3] = assay: Example 2: sublingual DHE vs placebo in patients suffering from migraines; type: in vivo; conditions: 1 mg sublingual DHE
Procedure: This experiment utilizes two test groups of patients. All of the patients are suffering from migraines. One group receives a 1 mg dose of sublingual DHE, the other group receives a placebo. The DHE sublingual formulation is placed by the patients or medical professional under the tongue. The DHE sublingual formulation is allowed to dissolve fully. If the symptoms are not relieved within 20 to 40 minutes, a second dose is administered. Results are compared between the test group and the placebo group. […] The difference in amelioration of migraine symptoms are statistically significant.

migraine symptoms [4] = assay: Example 3: sublingual DHE tablet vs subcutaneous injection of DHE in migraine patients; type: in vivo; conditions: 1 mg sublingual tablet vs 1 mg subcutaneous injection
Procedure: This example compares the effect on migraine of subcutaneous injection vs. the sublingual administration of the present invention.
This experiment utilizes three test groups of patients. All of the patients are suffering from migraines. One group receives a 1 mg dose of sublingual DHE tablet and a placebo subcutaneous injection, the second group receives a 1 mg subcutaneous injection of a pharmaceutical formulation comprising DHE and a placebo sublingual tablet, and the third group receives a placebo subcutaneous injection and a placebo sublingual tablet. Results are compared between the active sublingual test group and the active subcutaneous test group.

migraine symptoms [5] = assay: Example 4: sublingual DHE vs nasal administration of DHE in migraine patients; type: in vivo; conditions: 2 mg sublingual vs 2 mg nasally administered
Procedure: This example compares the effect on migraine of nasal administration of DHE vs. the sublingual administration of the present invention.
This experiment utilizes three test groups of patients. All of the patients are suffering from migraines. One group receives a 2 mg dose of sublingual DHE and placebo intranasal spray, the second group receives a 2 mg nasally administered dose of a pharmaceutical formulation comprising DHE and a placebo sublingual tablet, the third group receives a placebo sublingual tablet and a placebo intranasal spray. Results are compared between the active sublingual test group and the active nasal test group.

[6] = Example 5: plasma uptake of DHE, sublingual tablet vs subcutaneous administration; type: in vivo, patient; conditions: plasma monitored 24 hours
Procedure: This example evaluates the uptake in sublingual vs. subcutaneous administration of DHE.
In this experiment one patient suffering from migraine pain is administered a migraine ameliorating dose of DHE as a sublingual tablet formulated as described in Example 1. The plasma concentration of DHE is monitored for a time of 24 hours after the administration. […] The rate and amount of DHE in the plasma is compared to that obtained by subcutaneous administration.

[7] = Example 6: two-way crossover, DHE tablet under the tongue vs orally with water; type: in vivo, healthy normal volunteers; conditions: tablet under the tongue vs orally with about 240 ml water; blood over 24 hour
Procedure: Each volunteer is administered DHE sublingual tablet manufactured as defined in this patent. In one treatment the tablet is administered under the tongue and in the crossover treatment the subject is administered the tablet orally with about 240 ml of water. Blood samples are taken serially over a 24 hour duration post administration and assayed for unchanged DHE and the principle 8-hydroxy DHE metabolite.

[8] = oral forms of DHE; cited from earlier work
migraine = conditions: in vivo; cited from earlier work

SMILES | half-life ([1]; cynomolgus, monkey, in vivo) [h] | Tmax ([1]; cynomolgus, monkey, in vivo, 0.5 mg, plasma, sublingual 0.5 mL of 1.0 mg/mL, read-out: Tmax (time point of maximum concentration) (converted)) [min] | detection of DHE in the blood plasma after sublingual administration ([1]; sublingual) | observations for general health and appearance, mortality and moribundity [2] | amelioration of migraine symptoms compared to placebo control group (migraine symptoms [3]) | amelioration of migraine symptoms, sublingual vs subcutaneous group (migraine symptoms [4]) | amelioration of migraine symptoms, sublingual vs nasal group (migraine symptoms [5]) | time to maximum plasma concentration of DHE [6] [min] | levels of active DHE, sublingual higher than oral [7] | active unchanged drug that reaches the blood stream [8] | efficacy in the treatment of migraine (migraine)
CN1C[C@H](C(=O)N[C@]2(C)O[C@@]3(O)[C@@H]4CCCN4C(=O)[C@H](Cc4ccccc4)N3C2=O)C[C@@H]2c3cccc4[nH]cc(c34)C[C@H]21 [DHE, Dihydroergotamine] | 2.2 | 5 | rapid detection of DHE in the blood plasma | No unusual observations | greater amelioration of migraine symptoms | equivalent amelioration of migraine symptoms | equivalent amelioration of migraine symptoms | 30 to 60 | at least 200% | 2-10% | 
CN(C)CCc1c[nH]c2ccc(Cn3cncn3)cc12 [rizatriptan] |  |  |  |  |  |  |  |  |  |  | 60-70%
